Results from patent US20250295680A1, “NOVEL DUTOGLIPTIN FORMULATIONS AND THEIR PREPARATION” (Recardio Inc., priority 2022, published 2025).

Assay: Solubility of fatty acid sodium salts and salt precipitation/anion exchange with Dutogliptin tartrate
Assay type: physicochemical
Details: for Solubility 2-8° C. / Solubility 25° C.: volume for the stated amount of substance (0.41 mmol Dutogliptin tartrate, 0.83 mmol fatty acid salts); for Precipitation after addition of Dutogliptin tartrate solution: 100 mg/ml Dutogliptin tartrate solution, 2-8° C.
Procedure: Assuming that the ion lattice of Dutogliptin tartrate (dissolved in water) is pulled apart so that the individual Dutogliptin and tartrate ions are in solution, an exchange should take place by adding excess fatty acid anions. The resulting hydrophobic salt should form and precipitate due to reduced solubility.
To promote the exchange, the salts, which were dissolved at room temperature, were cooled to 2-8° C. after the addition of Dutogliptin tartrate and stirred overnight.
Five different physiologic fatty acids (as sodium salts) were prepared by anion exchange of the tartrates with a double molar addition of the salts at a reduced temperature (reduced Dutogliptin tartrate solubility).

[1] = listed as sodium cholate, hydrate

Row | SMILES | Solubility 2-8° C. | Solubility 25° C. | Precipitation after addition of Dutogliptin tartrate solution (hydrate) | Precipitation after addition of Dutogliptin tartrate solution [1] | Solubility 2-8° C. (hydrate) | Solubility 2-8° C. [1]
1 | CCCCCCCCCCCC(=O)[O-].[Na+] [Sodium Laurate] | not soluble | 10 mL | – | – | – | –
2 | CCCCCCCCCCCCCC(=O)[O-].[Na+] [Sodium Myristate] | not soluble | >10 mL | – | – | – | –
3 | C[C@H](CCC(=O)[O-])[C@H]1CC[C@H]2[C@@H]3[C@H](O)C[C@@H]4C[C@H](O)CC[C@]4(C)[C@H]3C[C@H](O)[C@]12C.O.[Na+] [Sodium cholate hydrate] | – | 5 mL | no precipitation | no visual evidence of turbidity or precipitation | 5 mL, clear | remained sufficient soluble
